Tested on: not listed separately
Assay: Metabolic (microsomal) stability assay
Conditions: pooled liver microsomes, pH 7.4

Row | SMILES | half-life at 0.5 μM [min]
1 | Cc1ncn(C(=O)N2CC3(CCCN(c4nc(OC[C@@]56CCCN5C[C@H](F)C6)nc5c(F)c(-c6ccc(F)c7sc(N)c(C#N)c67)c(Cl)cc45)C3)C2)n1 [Compound A102, 2-amino-4-(6-chloro-8-fluoro-2-(((2R,7aS)-2-fluorotetrahydro-1H-pyrrolizin-7a(5H)-yl)meth-oxy)-4-(2-(3-methyl-1H-1,2,4-triazole-1-carbonyl)-2,6-diaza-spiro[3.5]nonan-6-yl)quinazo-lin-7-yl)-7-fluorobenzo[b]-thiophene-3-carbonitrile] | > 10
2 | N#Cc1c(N)sc2c(F)ccc(-c3c(Cl)cc4c(N5CCN(CC6CC6)C6(CN(C(=O)n7cncn7)C6)C5)nc(OC[C@@]56CCCN5C[C@H](F)C6)nc4c3F)c12 [Compound A139, 2-amino-4-(6-chloro-4-(5-(cyclopropylmethyl)-2-(1H-1,2,4-triazole-1-carbonyl)-2,5,8-triazaspiro[3.5]nonan-8-yl)-8-fluoro-2-(((2R,7aS)-2-fluoro-tetrahydro-1H-pyrrolizin-7a(5H)-yl)methoxy)quinazolin-7-yl)-7-fluorobenzo[b]thiophene-3-carbonitrile] | > 10
3 | N#Cc1c(N)sc2c(F)ccc(-c3c(Cl)cc4c(N5CC6(CN(C(=O)n7cncn7)CCO6)C5)nc(OC[C@@]56CCCN5C[C@H](F)C6)nc4c3F)c12 [Compound A140, 4-(4-(8-(1H-1,2,4-triazole-1-carbonyl)-5-oxa-2,8-diaza-spiro[3.5]nonan-2-yl)-6-chloro-8-fluoro-2-(((2R,7aS)-2-fluoro-tetrahydro-1H-pyrrolizin-7a(5H)-yl)methoxy)quinazolin-7-yl)-2-amino-7-fluorobenzo-[b]thiophene-3-carbonitrile] | > 10
4 | N#CC[C@H]1CN(c2nc(OC[C@@]34CCCN3C[C@H](F)C4)nc3c(F)c(-c4ccc(F)c5sc(N)nc45)c(Cl)cc23)CCN1C(=O)n1cncn1 [Compound A145, 2-((2S)-4-(7-(2-amino-7-fluorobenzo[d]thiazol-4-yl)-6-chloro-8-fluoro-2-(((2R,7aS)-2-fluorotetrahydro-1H-pyrrolizin-7a(5H)-yl)methoxy)quinazolin-4-yl)-1-(1H-1,2,4-triazole-1-carbonyl)piperazin-2-yl)aceto-nitrile] | > 10
5 | Nc1nc2c(-c3c(Cl)cc4c(N5CCN(C(=O)n6cncn6)CC5)nc(OC[C@@]56CCCN5C[C@H](F)C6)nc4c3F)ccc(F)c2s1 [Compound A146, (4-(7-(2-amino-7-fluorobenzo-[d]thiazol-4-yl)-6-chloro-8-fluoro-2-(((2R,7aS)-2-fluoro-tetrahydro-1H-pyrrolizin-7a(5H)-yl)methoxy)quinazolin-4-yl)piperazin-1-yl)(1H-1,2,4-triazol-1-yl)methanone] | > 10
6 | Cc1ncn(C(=O)N2CCCC(Oc3nc(OC[C@@]45CCCN4C[C@H](F)C5)nc4c(F)c(-c5ccc(F)c6sc(N)c(C#N)c56)c(Cl)cc34)CC2)n1 (stereo partly drawn) [Compound A174, 2-amino-4-(6-chloro-8-fluoro-2-(((2R,7aS)-2-fluorotetra-hydro-1H-pyrrolizin-7a(5H)-yl)methoxy)-4-((1-(3-methyl-1H-1,2,4-triazole-1-carbonyl)-azepan-4-yl)oxy)quinazolin-7-yl)-7-fluorobenzo[b]thiophene-3-carbonitrile] | > 10
7 | N#Cc1c(N)sc2c(F)ccc(-c3c(Cl)cc4c(N5CCC6CN(C(=O)n7cncn7)CC65)nc(OC[C@@]56CCCN5C[C@H](F)C6)nc4c3F)c12 (stereo partly drawn) [Compound A178, 4-(4-(5-(1H-1,2,4-triazole-1-carbonyl)hexahydropyrrolo[3,4-b]pyrrol-1(2H)-yl)-6-chloro-8-fluoro-2-(((2R,7aS)-2-fluoro-tetrahydro-1H-pyrrolizin-7a(5H)-yl)methoxy)quinazolin-7-yl)-2-amino-7-fluorobenzo-[b]thiophene-3-carbonitrile] | > 10
8 | N#Cc1c(N)sc2c(F)ccc(-c3c(Cl)cc4c(N5CCC6C5CCCN6C(=O)n5cncn5)nc(OC[C@@]56CCCN5C[C@H](F)C6)nc4c3F)c12 (stereo partly drawn) [Compound A181, 4-(4-(4-(1H-1,2,4-triazole-1-carbonyl)octahydro-1H-pyrrolo[3,2-b]pyridin-1-yl)-6-chloro-8-fluoro-2-(((2R,7aS)-2-fluorotetrahydro-1H-pyrrol-izin-7a(5H)-yl)methoxy)quin-azolin-7-yl)-2-amino-7-fluoro-benzo[b]thiophene-3-carbonitrile] | > 10
9 | Nc1nc2c(-c3c(Cl)cc4c(N5CCC6(CN(C(=O)n7cncn7)C6)C5)nc(OC[C@@]56CCCN5C[C@H](F)C6)nc4c3F)ccc(F)c2s1 [Compound A201, (6-(7-(2-amino-7-fluorobenzo-[d]thiazol-4-yl)-6-chloro-8-fluoro-2-(((2R,7aS)-2-fluoro-tetrahydro-1H-pyrrolizin-7a(5H)-yl)methoxy)quinazolin-4-yl)-2,6-diazaspiro[3.4]octan-2-yl)(1H-1,2,4-triazol-1-yl)-methanone] | > 10
10 | C[C@@H]1CN(C(=O)n2cncn2)[C@@H](C)CN1c1nc(OC[C@@]23CCCN2C[C@H](F)C3)nc2c(F)c(-c3ccc(F)c4sc(N)nc34)c(Cl)cc12 [Compound A244, ((2S,5R)-4-(7-(2-amino-7-fluorobenzo[d]thiazol-4-yl)-6-chloro-8-fluoro-2-(((2R,7aS)-2-fluorotetrahydro-1H-pyrrolizin-7a(5H)-yl)methoxy)quinazolin-4-yl)-2,5-dimethylpiperazin-1-yl)(1H-1,2,4-triazol-1-yl)meth-anone] | > 10
11 | Nc1nc2c(-c3c(Cl)cc4c(N5CC6(CN(C(=O)n7cncn7)CCO6)C5)nc(OC[C@@]56CCCN5C[C@H](F)C6)nc4c3F)ccc(F)c2s1 [Compound A268, (2-(7-(2-amino-7-fluorobenzo-[d]thiazol-4-yl)-6-chloro-8-fluoro-2-(((2R,7aS)-2-fluoro-tetrahydro-1H-pyrrolizin-7a(5H)-yl)methoxy)quinazolin-4-yl)-5-oxa-2,8-diazaspiro[3.5]-nonan-8-yl)(1H-1,2,4-triazol-1-yl)methanone] | > 10
12 | Nc1nc2c(-c3c(Cl)cc4c(N5CCOC6(CN(C(=O)n7cncn7)C6)C5)nc(OC[C@@]56CCCN5C[C@H](F)C6)nc4c3F)ccc(F)c2s1 [Compound A273, (8-(7-(2-amino-7-fluorobenzo-[d]thiazol-4-yl)-6-chloro-8-fluoro-2-(((2R,7aS)-2-fluoro-tetrahydro-1H-pyrrolizin-7a(5H)-yl)methoxy)quinazolin-4-yl)-5-oxa-2,8-diazaspiro[3.5]-nonan-2-yl)(1H-1,2,4-triazol-1-yl)methanone] | > 10
13 | N#Cc1c(N)sc2c(F)ccc(-c3c(Cl)cc4c(N5CCC6(CN(C(=O)n7cncn7)C6)C5)nc(OC[C@@]56CCCN5C[C@H](F)C6)nc4c3F)c12 [Compound A277, 4-(4-(2-(1H-1,2,4-triazole-1-carbonyl)-2,6-diazaspiro[3.4]-octan-6-yl)-6-chloro-8-fluoro-2-(((2R,7aS)-2-fluorotetrahydro-1H-pyrrolizin-7a(5H)-yl)meth-oxy)quinazolin-7-yl)-2-amino-7-fluorobenzo[b]thiophene-3-carbonitrile] | > 10
14 | N#Cc1c(N)sc2c(F)ccc(-c3c(Cl)cc4c(N5CC6CCCN(C(=O)n7cncn7)C6C5)nc(OC[C@@]56CCCN5C[C@H](F)C6)nc4c3F)c12 (stereo partly drawn) [Compound A284, 4-(4-(1-(1H-1,2,4-triazole-1-carbonyl)octahydro-6H-pyrrolo-[3,4-b]pyridin-6-yl)-6-chloro-8-fluoro-2-(((2R,7aS)-2-fluoro-tetrahydro-1H-pyrrolizin-7a(5H)-yl)methoxy)quinazolin-7-yl)-2-amino-7-fluorobenzo-[b]thiophene-3-carbonitrile] | > 10
15 | Nc1nc2c(-c3c(Cl)cc4c(N5CCC56CCN(C(=O)n5cncn5)CC6)nc(OC[C@@]56CCCN5C[C@H](F)C6)nc4c3F)ccc(F)c2s1 [Compound A288, (1-(7-(2-amino-7-fluorobenzo-[d]thiazol-4-yl)-6-chloro-8-fluoro-2-(((2R,7aS)-2-fluoro-tetrahydro-1H-pyrrolizin-7a(5H)-yl)methoxy)quinazolin-4-yl)-1,7-diazaspiro[3.5]nonan-7-yl)(1H-1,2,4-triazol-1-yl)-methanone] | > 10

Molecular target: T1, KRAS G12D 1-169 (His-tagged, GDP-loaded) (Homo sapiens, UniProt P01116, G12D)
T1 construct: His -tagged GDP-loaded G12D 1-169; made in house; host or cells: E. coli, e.g. BL21 (DE3)
Assay: Covalent modification of KRAS protein by intact-protein LC-MS
Assay type: binding
Conditions: comparable or same conditions as K-Ras G12S
Procedure: Test compounds are prepared as 10 mM stock solutions in DMSO (Fisher cat #BP231-100). KRAS protein (His -tagged GDP-loaded wildtype 1-169, His -tagged GDP-loaded G12S 1-169 or His -tagged GDP-loaded G12D 1-169) is diluted to ˜2 μM in appropriate buffer (e.g., a Hepes buffer at physiological conditions). For testing KRAS modification, compounds are diluted to 50× final test concentration in DMSO in 96-well storage plates. 2 μl of the diluted 50× compounds are added to appropriate wells in the PCR plate (Fisher cat #AB-0800). ˜49 μl of the stock protein solution is added to each well of the 96-well PCR plate. Reactions are mixed carefully. The plate is sealed well with aluminum plate seal, and stored in drawer at room temperature for 24 hrs. 5 μl of 2% formic acid (Fisher cat #A117-50) in MilliQ H2O is then added to each well followed by mixing with a pipette. The plate is then resealed with aluminum seal and stored until mass spectrometry analysis.
The extent of covalent modification of KRAS proteins was determined by liquid chromatography electrospray mass spectrometry analysis of the intact proteins on a Thermo Q-Exactive Plus mass spectrometer. 20 μl of sample was injected onto a bioZen 3.6 μm Intact C4 column (Phenomenex cat #00B-4767-AN) placed in a column oven set to 40° C. and separated using a suitable LC gradient from ˜20% to ˜60% solvent B. Solvent A was 0.1% formic acid and solvent B was 0.1% formic acid in acetonitrile. HESI source settings were set to 40, 5 and 1 for the sheath, auxiliary and sweep gas flow, respectively. The spray voltage was 4 kV, and the capillary temperature was 320° C. S-lens RF level was 50 and auxiliary gas heater temperature was set to 200° C. The mass spectrometry was acquired using a scan range from 650 to 1750 m/z using positive polarity at a mass resolution of 70,000, AGC target of 1e6 ions and maximum injection time of 250 ms. The recorded protein mass spectrum was deconvoluted from the raw data file using Protein Deconvolution v4.0 (Thermo). The protein mass and adduct masses were exported with their peak intensities. The peak intensities for the unmodified and modified protein were used to calculate the percent covalent modification of the KRAS protein based on the following equation: % KRAS protein modification=((KRAS−compound)/(KRAS)+(KRAS−Compound))*100.

T1 sequence (P01116 1-169 isoform P01116-2 G12D): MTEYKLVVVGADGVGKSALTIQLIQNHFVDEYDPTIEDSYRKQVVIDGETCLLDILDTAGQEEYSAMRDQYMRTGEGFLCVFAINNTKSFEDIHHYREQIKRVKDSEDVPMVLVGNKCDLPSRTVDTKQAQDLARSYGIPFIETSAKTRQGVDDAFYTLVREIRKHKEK

Row | SMILES | covalent labeling of K-Ras G12D
16 | Cc1ncn(C(=O)N2CC3(CCCN(c4nc(OC[C@@]56CCCN5C[C@H](F)C6)nc5c(F)c(-c6ccc(F)c7sc(N)c(C#N)c67)c(Cl)cc45)C3)C2)n1 [Compound A102, 2-amino-4-(6-chloro-8-fluoro-2-(((2R,7aS)-2-fluorotetrahydro-1H-pyrrolizin-7a(5H)-yl)meth-oxy)-4-(2-(3-methyl-1H-1,2,4-triazole-1-carbonyl)-2,6-diaza-spiro[3.5]nonan-6-yl)quinazo-lin-7-yl)-7-fluorobenzo[b]-thiophene-3-carbonitrile] | essentially no detectable labeling
